Laboratory results published in PubChem BioAssay (NCI).
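Cultured in 96-well plates, cells were exposed to test compound for 48 hours across five concentrations. Here, GI50 denotes the concentration required for 50% inhibition of growth. TGI: concentration producing complete growth inhibition.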

Key:
Assay in all cases: DTP human tumour cell line panel, 48 h
HCT-116 colon = test system: HCT-116 colon
SR leukemia = test system: SR leukemia
MOLT-4 leukemia = test system: MOLT-4 leukemia
DU-145 prostate = test system: DU-145 prostate
NCI-H23 lung = test system: NCI-H23 lung
OVCAR-8 ovarian = test system: OVCAR-8 ovarian
OVCAR-4 ovarian = test system: OVCAR-4 ovarian
SNB-75 CNS = test system: SNB-75 CNS
LOX IMVI melanoma = test system: LOX IMVI melanoma
HCT-15 colon = test system: HCT-15 colon
SK-MEL-2 melanoma = test system: SK-MEL-2 melanoma
SF-539 CNS = test system: SF-539 CNS
PC-3 prostate = test system: PC-3 prostate
SK-OV-3 ovarian = test system: SK-OV-3 ovarian
UACC-62 melanoma = test system: UACC-62 melanoma
T-47D breast = test system: T-47D breast
CAKI-1 renal = test system: CAKI-1 renal
HT29 colon = test system: HT29 colon
HS 578T breast = test system: HS 578T breast
CCRF-CEM leukemia = test system: CCRF-CEM leukemia
MDA-MB-435 = test system: MDA-MB-435
SN12C renal = test system: SN12C renal
UO-31 renal = test system: UO-31 renal
MALME-3M melanoma = test system: MALME-3M melanoma
HOP-92 NSCLC = test system: HOP-92 NSCLC
NCI/ADR-RES ovarian = test system: NCI/ADR-RES ovarian
MDA-MB-231 breast = test system: MDA-MB-231 breast
IGROV1 ovarian = test system: IGROV1 ovarian
ACHN renal = test system: ACHN renal
UACC-257 melanoma = test system: UACC-257 melanoma

COc1ccc(F)cc1/C=C/C(=O)/C=C(/C=C/c1cc(F)ccc1OC)OB(F)F
GI50 (HCT-116 colon): 1390 nM
TGI (HCT-116 colon): 4210 nM
GI50 (SR leukemia): 481 nM
TGI (SR leukemia): 23400 nM
GI50 (MOLT-4 leukemia): 321 nM
TGI (MOLT-4 leukemia): 4750 nM
GI50 (DU-145 prostate): 2060 nM
TGI (DU-145 prostate): > 100000 nM
GI50 (NCI-H23 lung): 1460 nM
TGI (NCI-H23 lung): 4050 nM
GI50 (OVCAR-8 ovarian): 513 nM
TGI (OVCAR-8 ovarian): 5230 nM
GI50 (OVCAR-4 ovarian): 2330 nM
TGI (OVCAR-4 ovarian): > 100000 nM
GI50 (SNB-75 CNS): 1610 nM
TGI (SNB-75 CNS): 4860 nM
GI50 (LOX IMVI melanoma): 1250 nM
TGI (LOX IMVI melanoma): 2560 nM
GI50 (HCT-15 colon): 1270 nM
TGI (HCT-15 colon): 2930 nM
GI50 (SK-MEL-2 melanoma): 2550 nM
TGI (SK-MEL-2 melanoma): 7000 nM
GI50 (SF-539 CNS): 2400 nM
TGI (SF-539 CNS): 6680 nM
GI50 (PC-3 prostate): 1500 nM
TGI (PC-3 prostate): 3890 nM
GI50 (SK-OV-3 ovarian): 3480 nM
TGI (SK-OV-3 ovarian): > 100000 nM
GI50 (UACC-62 melanoma): 1270 nM
TGI (UACC-62 melanoma): 2900 nM
GI50 (T-47D breast): 2170 nM
TGI (T-47D breast): 96600 nM
GI50 (CAKI-1 renal): 1140 nM
TGI (CAKI-1 renal): 2440 nM
GI50 (HT29 colon): 1850 nM
TGI (HT29 colon): 4790 nM
GI50 (HS 578T breast): 3130 nM
TGI (HS 578T breast): > 100000 nM
GI50 (CCRF-CEM leukemia): 261 nM
TGI (CCRF-CEM leukemia): 679 nM
GI50 (MDA-MB-435): 1470 nM
TGI (MDA-MB-435): 5020 nM
GI50 (SN12C renal): 1640 nM
TGI (SN12C renal): 4830 nM
GI50 (UO-31 renal): 1130 nM
TGI (UO-31 renal): 2470 nM
GI50 (MALME-3M melanoma): 2050 nM
TGI (MALME-3M melanoma): 9120 nM
GI50 (HOP-92 NSCLC): 2040 nM
TGI (HOP-92 NSCLC): 4620 nM
GI50 (NCI/ADR-RES ovarian): 1660 nM
TGI (NCI/ADR-RES ovarian): 6410 nM
GI50 (MDA-MB-231 breast): 2170 nM
TGI (MDA-MB-231 breast): 6100 nM
GI50 (IGROV1 ovarian): 2040 nM
TGI (IGROV1 ovarian): 6050 nM
GI50 (ACHN renal): 1020 nM
TGI (ACHN renal): 2370 nM
GI50 (UACC-257 melanoma): 2030 nM
TGI (UACC-257 melanoma): 7480 nM
